Measured values reported in PubChem BioAssay AID651703 (Broad Institute, 2012).

Molecular target: Transforming acidic coiled-coil-containing protein 3 (Homo sapiens) (UniProt Q9Y6A5)
Test: ARNT/TACC3 interaction disruptors, potency, confirmation, biochemical, AlphaScreen, cherry-picked samples (AID 651703);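 also: TACC3 partner is the GST-tagged E629A mutant dimer; hits lower the signal meaning they disrupt ARNT binding to TACC3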
Conditions: AlphaScreen His-ARNT PAS-B / GST-TACC3 binding, luminescence

CCOc1ccccc1C(=O)OCC(=O)Nc1nnc(-c2ccccc2)o1
AC50: 23.3 µM

OCC1CCN(c2nc(-c3ccccn3)nnc2-c2ccccc2)CC1
AC50: 1.03 µM

CC(C)(C)c1ccc(OCCNC(=O)c2ncn[nH]2)cc1
AC50: 15.8 µM

Cc1[nH]n(-c2ccccc2)c(=O)c1/C=N\NC(=O)C1COc2ccccc2O1 (configuration not stated)
AC50: 17.4 µM

O=C(COc1ccccc1)Nc1nnc(-c2ccco2)o1
AC50: 36.6 µM

OCCN1CCN(Cc2cc(Cl)c3cccnc3c2O)CC1
AC50: 1.34 µM

CCN1CCN(C(c2cccnc2)c2cc(Cl)c3cccnc3c2O)CC1 (configuration not stated)
AC50: 4.03 µM

O=C(Nc1nnc(C2=COCCO2)o1)c1ccc(Cl)cc1
AC50: 17.7 µM

NC(CO)C(=O)NNCc1ccc(O)c(O)c1O (configuration not stated)
AC50: 13.3 µM

CCOC(=O)/C(=N/Nc1ccccc1OC)N1CCCc2ccccc21
AC50: 17.3 µM

CC(=O)OC[C@H]1O[C@@H](Sc2cccc3cccnc23)[C@H](OC(C)=O)[C@@H](OC(C)=O)[C@H]1OC(C)=O
AC50: 11.5 µM

CCOc1ccc(NC(=O)c2c(NC(=O)CNCCN3CCOCC3)sc3c2CCC3)cc1
AC50: 14.6 µM

O=C(N[C@@H]1CC[C@H](CCn2cc(-c3ccccn3)nn2)O[C@H]1CO)c1ccc(F)cc1
AC50: 14.3 µM

Oc1c(C(Nc2cccc(C(F)(F)F)c2)c2ccncc2)ccc2cccnc12 (configuration not stated)
AC50: 0.575 µM

O=C(Nc1nc(-c2ccccn2)cs1)C1CCCC1
AC50: 15.5 µM

COCc1cc(CN2CCN(C)CC2)c(O)c2ncccc12
AC50: 1.14 µM

COc1ccc(S(=O)(=O)n2oc(=O)cc2-c2ccccc2)cc1OC
AC50: 2.6 µM

O=C(O)CSc1c(O)c2ccccc2[nH]c1=O
AC50: 34.5 µM

O=C(Nc1nc(-c2ccccn2)cs1)c1ccc(Cl)s1
AC50: 3.61 µM

O=S(=O)(Nc1cccc2cccnc12)c1ccc(S(=O)(=O)N2CCCC2)cc1
AC50: 23.3 µM

O=c1oc2c3c4c(cc2s1)CCCN4CCC3
AC50: 26.1 µM

COc1ccc(-c2nc(C#N)c(N3CCCCC3)o2)cc1
AC50: 32.2 µM

CCOc1ccc(C(=O)CCNC(Cc2cnc[nH]2)C(=O)O)cc1 (configuration not stated)
AC50: 41.2 µM

Cc1ccc(-n2c(SCC(N)=O)nnc2-c2ccccn2)cc1
AC50: 34.7 µM

FC(F)(F)c1cnc(C(c2ccccn2)c2ncn[nH]2)c(Cl)c1 (configuration not stated)
AC50: 3.93 µM

CCC(=O)NC(C)c1cc(Cl)c2cccnc2c1O (configuration not stated)
AC50: 4.72 µM

O=C(NCCCn1ccnc1)C(=O)NCC1OCCN1S(=O)(=O)c1cc(F)ccc1F (configuration not stated)
AC50: 3 µM

COc1ccc(Nc2cc3n(c(=O)n2)CCc2cc(OC)c(OC)cc2-3)cc1
AC50: 68.6 µM

COc1cccc(CNC(=O)CSc2ccc(-c3ccccn3)nn2)c1
AC50: 4.03 µM

COc1ccc2nc(/N=C/c3c(C)[nH]n(-c4ccc(C)cc4)c3=O)sc2c1
AC50: 46.3 µM

COC(=O)c1ccc(CSc2ccc3nnc(-c4ccccn4)n3n2)o1
AC50: 17.4 µM

O=C(NCCCn1ccnc1)C(F)(F)C(F)(F)C(=O)NCCCn1ccnc1
AC50: 38.5 µM

CCOC(=O)CSc1cccc2cccnc12
AC50: 4.59 µM

O=C(CSc1ccc(-c2ccccn2)nn1)N1CCCC1
AC50: 3.05 µM

Oc1c(CN2CCN(c3ccc(F)cc3)CC2)cc(Cl)c2cccnc12
AC50: 2.5 µM

Cc1[nH]n(-c2ccccc2)c(=O)c1/C=N/N(c1ccccc1)c1ccccc1
AC50: 16.2 µM

O=C(Cn1cnc([N+](=O)[O-])n1)N/N=C/c1cc(Cl)ccc1O
AC50: 4.77 µM

CN1CC[C@@]2(C)c3cc(O)ccc3N(C)[C@@H]12
AC50: 60.1 µM

CC(C)(C)CCNC(=O)c1cc(-c2ccccc2)on1
AC50: 21.5 µM

Cc1cc(C)c(NC(=O)CSc2nnc(-c3ccccn3)n2N)c(Cl)c1
AC50: 37.1 µM

C[C@@H](Nc1nc(-c2ccccn2)nnc1-c1ccccc1)c1ccccc1
AC50: 0.77 µM

Oc1c(Cl)cc(CN2CCOCC2)c2cccnc12
AC50: 1.15 µM

COc1cc2c(cc1O)C[C@H]1NCCc3cc4c(c-2c31)OCO4
AC50: 27.7 µM

CCOc1ncccc1C(=O)OCC(=O)Nc1nnc(-c2ccccc2)o1
AC50: 21.6 µM

Cc1nnc(NC(=O)c2ccc(S(=O)(=O)N3CC(C)OC(C)C3)cc2)o1 (configuration not stated)
AC50: 44.6 µM

Cc1ccnc2nc(C(=O)Nc3nc(-c4ccccn4)cs3)nn12
AC50: 2.53 µM

c1ccc(-c2n[nH]c(-c3ccccn3)n2)cc1
AC50: 11.6 µM

C[C@H]1CN([C@@H](C)CO)C(=O)Cc2cc(NC(=O)Nc3cccc4ccccc34)ccc2O[C@@H]1CN(C)Cc1ccc(Oc2ccccc2)cc1
AC50: 47.3 µM

O=C(N[C@@H]1CC[C@@H](CCn2cc(-c3ccccn3)nn2)O[C@@H]1CO)c1cccnc1
AC50: 13.1 µM

O=c1[nH]c(N2CCOCC2)cc2ccccc12
AC50: 63.8 µM

CC1CCCC(C)N1/N=C/c1ccc([N+](=O)[O-])cc1 (configuration not stated)
AC50: 17 µM

CCOC(=O)c1c(C)[nH]c(N=Nc2cccc(C)c2)c1C
AC50: 17.8 µM

O=C(Nc1nc(-c2ccccn2)cs1)c1ccco1
AC50: 2.17 µM

c1ccc(-c2nnc(-c3ccccn3)nc2NCC2CCCCC2)cc1
AC50: 0.994 µM

c1ccc(CCNc2nc(-c3ccccn3)nc3ccccc23)cc1
AC50: 20.1 µM

c1ccc(-c2nnc(-c3ccccn3)nc2N2CCC(C3CCCCC3)C2)cc1 (configuration not stated)
AC50: 2.68 µM

O=C(N[C@@H]1CC[C@@H](CCn2cc(-c3ccccn3)nn2)O[C@@H]1CO)c1ccncc1
AC50: 10.3 µM

O=C(Oc1c(CN2CCOCC2)cc(Cl)c2cccnc12)c1cccs1
AC50: 15.2 µM

C[C@H]1c2cccc(O)c2C(O)=C2C(=O)[C@]3(O)C(O)=C(C(N)=O)C(=O)[C@@H](N(C)C)C3[C@@H](O)C21 (some centres not stated)
AC50: 33.5 µM

O=C(COC(=O)c1ccc([N+](=O)[O-])s1)NCc1ccccc1
AC50: 37 µM

Cc1cccc(C(=O)Nc2nnc(-c3cccnc3)o2)c1
AC50: 21.7 µM

Cc1ccc(S(=O)(=O)CCc2nnc(NC(=O)c3ccccn3)s2)cc1
AC50: 3.01 µM

Oc1ccc(Br)cc1/C=N/Nc1ccccn1
AC50: 3.27 µM

O=C(N[C@H]1CC[C@@H](CCn2cc(-c3ccccn3)nn2)O[C@H]1CO)c1cccnc1
AC50: 8.65 µM

O=S(=O)(N[C@H]1CC[C@@H](CCn2cc(-c3ccccn3)nn2)O[C@@H]1CO)c1cccc(F)c1
AC50: 10.9 µM

CCCC(=O)NC(c1ccc(N(C)C)cc1)c1ccc2cccnc2c1O (configuration not stated)
AC50: 5.3 µM

O=C(CN1CCCCCCC1)N/N=C/c1ccc(F)c(F)c1
AC50: 65.8 µM

COc1ccc(CCNC(=O)CSc2nnc3ccc(-c4ccccn4)nn23)cc1
AC50: 33.5 µM

O=c1cc(-c2ccc(O)cc2)oc2c(O)c(O)c(O)c(O)c12
AC50: 63 µM

O=c1cc(N/N=C/c2ccccc2)[nH]c(=O)[nH]1
AC50: 31.8 µM

O=C(Nc1nnc(-c2ccco2)o1)c1ccc(N2C(=O)CCC2=O)cc1
AC50: 22.8 µM

CC(=O)Nc1cccc(C(=O)OCC(=O)Nc2nnc(-c3ccccc3)o2)c1
AC50: 16.3 µM

CCN(C(=O)Cc1nc(N)n[nH]1)C1(C(=O)Nc2ccccc2)CCCCC1
AC50: 20 µM

COc1ccc2nc(-c3ccccn3)[nH]c2c1
AC50: 29 µM

O=C(N/N=C/c1sc2ccccc2c1O)c1cccc2ccccc12
AC50: 23 µM

Cc1[nH][nH]c(=O)c1C(c1ccc(-c2ccc(F)cc2)o1)c1c(C)[nH][nH]c1=O
AC50: 19.6 µM

O=C(NC[C@@H]1[C@H](c2ccccc2)[C@H](CO)N1Cc1ccccn1)C1CCC1
AC50: 28.2 µM

O=C(CSc1cccc2cccnc12)N1CCCC1
AC50: 3.28 µM

CCOc1ccccc1NC(=O)CN(c1ccc(OC)cc1)S(=O)(=O)c1c(C)[nH]c(=O)[nH]c1=O
AC50: 10.5 µM

O=C(Oc1ccc(Cl)c2cccnc12)c1cccnc1
AC50: 9.58 µM

CCN(CCCl)c1cc(CN(C)C)cc(NC(=O)c2ccc(C(=O)Nc3cc(CN(C)C)cc(N(CC)CCCl)c3)cc2)c1
AC50: 1.92 µM

Oc1ccc(CNC2Cc3ccccc3C2)c2cccnc12
AC50: 0.63 µM
